# Measurements reported in patent US20060035212A1, “Molecules inhibiting hepatitis c virus protein synthesis and method for screening same” (Universte Joseph Fourier, priority 2002, published 2006).
# Entries after “also recorded” stand apart in the source; their conditions may differ. Like-named read-outs stand apart in the source and are kept apart here.
# B1: RRMp116: recombinant RNA recognition motif of the eIF3 p116 subunit (SEQ ID 5), C-terminal His6-Tag (protein)
# chain: MDRPQEADGIDSVIVVDNVPQVGPDRLEKLKNVIHKIFSKFGKITNDFYPEEDGKTKGYIFLEYASPAHAVDAVKNADGYKLDKQHTFRVNLFTDFDKYMTISDEW
# modifications: C-terminal His6 tag; p116 175..279 corresponds to a portion (RRM) of eIF3 p116 subunit
# Legend:
# [1] = test system: HCV IRES-controlled Firefly luciferase synthesis in HeLa cells; experiment: Bicistronic construct in HeLa cells: IRES-dependent (cap-independent) translation, Firefly luciferase; format: cell-based; conditions: for IRES specificity of translation inhibition (in words): IRES-dependent versus cap-dependent translation, HeLa cells; for inhibition at 2000 µM: 2 mM
# Description: (§1) Bicistronic constructs consisting of a first cistron corresponding to the Renilla luciferase gene, followed by the IRES sequence, followed by a second cistron corresponding to the Firefly luciferase gene (pRluc-IRES-Fluc) are prepared in the following way. A plasmid pRL-SV40 (Promega) is linearized with Xba I and dephosphorylated. In parallel, the IRES is amplified with the Firefly luciferase gene by PCR, in the presence of complementary oligonucleotides containing the Xba I sites. The PCR products are then subcloned in plasmid pTrcHis2-TOPO (Invitrogen) in order to control the digestion. The ligation of the insert containing the IRES with the Firefly luciferase gene and the linearized vector pRL-SV40 is carried out using T4 DNA ligase (Biolabs).
# (§2) 10^7 HeLa cells suspended in serum-free DMEM are transfected with 1 to 2.5 μg of plasmid pRluc-IRES-Fluc by electroporation at […] for 30 milliseconds using a Gene Pulser (BioRad). […] The Renilla luciferase activity (cap-dependent translation) and that of the Firefly luciferase (cap-independent=viral translation) in the cell lysates is measured and compared by means of the Dual-luciferase assay (Promega) and of a Lumat LB9507 luminometer (Berthold).
# [2] = target: T1, p116 RRM/consensus sequence of region II of the HCV IRES complex (Homo sapiens, UniProt P55884); experiment: In vitro screening assay: inhibition of binding of the RRM of p116 to the consensus sequence of region II of the IRES (nitrocellulose retention); parameters: species or system HCV (IRES RNA); eIF3 p116 RRM cDNA from HeLa cells; conditions: for inhibition of the formation of the RNA-protein complex (in words): 4 different concentrations tested
# T1 construct: His6 (C); made in house; host or cells: E. coli BL21lysS
# Description: (§3) Radiolabeled RNA fragments are obtained by in vitro transcription of the abovementioned templates in the presence of [α-32P]UTP. The RNA fragments are purified in a 6% acrylamide-urea gel and precipitated. The RNA pellets are taken up in 25 mM Tris-HCl, pH 7.4. In order to allow renaturation, the RNA was incubated at 65° C. in the abovementioned buffer for 5-7 min and then slowly cooled to ambient temperature. The renatured RNAs were incubated with increasing concentrations of protein in the same 25 mM Tris-HCl buffer, pH 7.4, at ambient temperature for 5 min.
# The mixture of proteins and of RNA is then deposited onto a nitrocellulose membrane washed beforehand with the same buffer. The radioactivity of the filter containing the RNA-protein complexes was measured using a Trilux MicroBeta radioactivity counter (PerkinElmer). […]
# The screening assay is carried out as follows. The RRM of p116 and the consensus sequence of region II are incubated in the presence of various aminoglycosides. The RNA mixture is then deposited onto a nitrocellulose membrane under the same conditions as in example 2.
# [3] = test system: cap-controlled Renilla luciferase synthesis in HeLa cells; experiment: Bicistronic construct in HeLa cells: cap-dependent translation, Renilla luciferase; format: cell-based; conditions: for cap-dependent synthesis, % of control: 2.5 μg of pDNA (FIG. 9C)
# Description: as §1, §2
# [4] = target: entire IRES of HCV; experiment: Affinity of the RRM of p116 for the whole IRES by retention on nitrocellulose; format: binding; conditions: 25 mM Tris-HCl pH 7.4, read-out: apparent Kd
# Description: as §3
# The mixture of proteins and of RNA is then deposited onto a nitrocellulose membrane washed beforehand with the same buffer. The radioactivity of the filter containing the RNA-protein complexes was measured using a Trilux MicroBeta radioactivity counter (PerkinElmer).
# [5] = concentrations of 1, 2 and 5 mM
molecule,measurement,setting,value
CN[C@@H]1[C@@H](O)[C@@H](O[C@@H]2[C@@H](O)[C@H](O[C@H]3O[C@H]([C@@H](C)O)[C@@H](O)[C@H](O)[C@H]3N)[C@@H](N)C[C@H]2N)OC[C@]1(C)O [G418],IRES specificity of translation inhibition (in words),[1],inhibit both the cap-dependent and IRES-dependent translation in an IRES-nonspecific manner
NC[C@H]1O[C@H](O[C@H]2[C@H](O)[C@@H](O[C@H]3O[C@H](CO)[C@@H](O)[C@H](N)[C@H]3O)[C@H](N)C[C@@H]2N)[C@H](O)[C@@H](O)[C@@H]1O [kanamycin A],inhibition of the p116 RRM/II complex,[2]; 20 μM,0%
same,inhibition of the p116 RRM/II complex,[2]; 40 μM,0%
same,inhibition of the p116 RRM/II complex,[2]; 80 μM,0%
NC[C@H]1O[C@H](O[C@H]2[C@H](O)[C@@H](O[C@H]3O[C@H](CO)[C@@H](O)[C@H](N)[C@H]3O)[C@H](N)C[C@@H]2N)[C@H](N)[C@@H](O)[C@@H]1O [kanamycin B],inhibition of the p116 RRM/II complex,[2]; 20 μM,22%
NC[C@@H]1O[C@H](O[C@H]2[C@@H](O)[C@H](O[C@@H]3[C@@H](O)[C@H](N)C[C@H](N)[C@H]3O[C@H]3O[C@H](CO)[C@@H](O)[C@H](O)[C@H]3N)O[C@@H]2CO)[C@H](N)[C@@H](O)[C@@H]1O [paramomycin],IRES specificity of translation inhibition (in words),[1],moderately IRES-specific
same,inhibition of IRES-dependent translation,[1]; [5],37%
same,inhibition of cap-dependent translation,[3]; [5],6.3%
[H]/N=C(/N)N[C@H]1[C@H](O)[C@@H](O)[C@H](O[C@@H]2O[C@@H](C)[C@](O)(C=O)[C@H]2O[C@@H]2O[C@@H](CO)[C@H](O)[C@@H](O)[C@@H]2NC)[C@@H](N/C(N)=N\[H])[C@@H]1O [streptomycin],IRES specificity of translation inhibition (in words),[1],inhibits the translation of the two cistrons in an IRES-nonspecific manner
same,inhibition at 20 µM,[2]; 20 μM,25%
same,inhibition at 40 µM,[2]; 40 μM,36%
same,inhibition of the formation of the RNA-protein complex (in words),[2],inhibit the formation of the RNA-protein complex at all the concentrations tested
NC[C@H]1O[C@H](O[C@H]2[C@H](O)[C@@H](O[C@H]3O[C@H](CO)[C@@H](O)[C@H](N)[C@H]3O)[C@H](N)C[C@@H]2N)[C@H](N)C[C@@H]1O [tobramycin],inhibition at 1000 µM,"[1]; Hepatitis C virus, HeLa, read-out: inhibition of the synthesis of the Firefly luciferase controlled by the IRES",90.4%
same,inhibition at 2000 µM,"[1]; Hepatitis C virus, HeLa, 1 μg of plasmid DNA (FIG. 9B), read-out: inhibition of IRES-luciferase synthesis",83%
same,inhibition at 2000 µM,"[1]; Hepatitis C virus, HeLa, 2.5 μg of pDNA (FIG. 9C), read-out: inhibition of the IRES-dependent translation",36.5%
same,inhibition at 5000 µM,"[1]; Hepatitis C virus, HeLa, 5 mM, 2.5 μg of pDNA (FIG. 9C)",69%
same,IRES specificity of translation inhibition (in words),[1],the most specific inhibitor of the IRES-controlled translation
same,inhibition at 20 µM,[2]; 20 μM,43%
same,inhibition at 40 µM,[2]; 40 μM,54%
same,inhibition of the formation of the RNA-protein complex (in words),[2],"inhibit the formation of the RNA-protein complex at all the concentrations tested; also recorded: capable of dissociating the p116/II complex in vitro, at all the concentrations tested"
same,"synthesis of the Renilla luciferase (cap-controlled), % of the control","[3]; 1 mM, 1 μg of plasmid DNA (FIG. 9B)",168 % of the control
same,"cap-dependent synthesis, % of control",[3]; 2 mM,268 % of control
same,"cap-dependent synthesis, % of control",[3]; 5 mM,134 % of control
same,inhibition at 2000 µM,"[3]; Renilla, HeLa, 2 mM, 1 μg of plasmid DNA (FIG. 9B)",27%
B1,Kd,[4],800 nM
